Data taken from the supplement of paper PMC12613149.

Legend:
[1] = collision cross section (TIMS, N2 drift gas) of the primary ion; higher = larger gas-phase ion size
[2] = reversed-phase LC retention time (C18, 15 min MeOH gradient); higher = more hydrophobic / later elution
[3] = ionization mode: ESI+, ion species: [M+H]+
[4] = ionization mode: ESI-, ion species: [M-H]-
[5] = ionization mode: ESI+, ion species: [M]+

Row | Structure (SMILES) | collision cross section [1, 3] [Å²] | collision cross section [1, 4] [Å²] | reversed-phase LC retention time [2, 3] [min] | reversed-phase LC retention time [2, 4] [min] | collision cross section [1, 5] [Å²] | reversed-phase LC retention time [2, 5] [min]
1 | CC(=O)Nc1ccc(S(=O)(=O)Nc2cc(C)on2)cc1 [Acetylsulfamethoxazole] | 169.12 | 165.1 | 9.53 | 6.92 |  | 
2 | CCCN(CCC)C(=O)SCc1ccccc1 [Prosulfocarb] | 158.12 |  | 16.4 |  |  | 
3 | Nc1ccccc1-c1ccccc1 [2-Aminobiphenyl] | 141.24 |  | 12.8 |  |  | 
4 | Cc1cc(Cl)ccc1/N=C/N(C)C [Chlordimeform] | 145.93 |  | 8.19 |  |  | 
5 | C[C@@H]1C[C@H]2[C@@H]3CCC4=CC(=O)C=C[C@]4(C)[C@@]3(Cl)[C@@H](O)C[C@]2(C)[C@@]1(OC(=O)c1ccco1)C(=O)CCl [Mometasone fuorate] | 217.59 | 214.51 | 15.2 | 15.7 |  | 
6 | Oc1ccc2c(c1)C13CCCCC1(O)C(C2)N(CC1CCC1)CC3 (centres undefined) [Butorphanol] |  | 188.37 |  | 16.6 |  | 
7 | O=C1NCCN1Cc1ccc(Cl)nc1 [Imidacloprid-urea] | 143.26 |  | 8.55 |  |  | 
8 | C/N=C(/NCC1CCOC1)N[N+](=O)[O-] (centres undefined) [Dinotefuran] | 141.96 | 146.7 | 6.27 | 6.46 |  | 
9 | O=[N+]([O-])/N=C1\NCCN1Cc1ccc(Cl)nc1 [Imidacloprid] | 155.98 | 157.08 | 8.67 | 8.7 |  | 
10 | O=[PH]1Oc2ccccc2-c2ccccc21 (centres undefined) [3,4,5,6-Dibenzo-1,2-oxaphosphane-2-oxide] |  | 144.27 |  | 8.76 |  | 
11 | Nc1ccc(Oc2ccc(N)cc2)cc1 [4,4'-Oxydianiline] | 159.82 |  | 4.06 |  |  | 
12 | CON(C)C(=O)Nc1ccc(Br)cc1 [Metobromuron] | 148.37 |  | 12.6 |  |  | 
13 | C[N+](C)(C)Cc1ccccc1 [Benzyltrimethylammonium] |  |  |  |  | 129.9 | 5.04
14 | CCCCCCCC/C=C\CCCCCCCC(N)=O [Oleic acid amide] | 177.48 |  | 18.5 |  |  | 
15 | C=C(C)C(=O)NCCCN(C)C [N-(3-Dimethylamino)propyl)methacrylamide] | 136.2 |  | 3.22 |  |  | 
16 | O=c1[nH]c2c(c(=O)n1C1CCCCC1)CCC2 [Lenacil] | 157.13 |  | 12.8 |  |  | 
17 | CCCCNC(=O)OCC#CI [3-Iodopropynyl butylcarbamate] | 147.73 |  | 12.8 |  |  | 
18 | CN(C)S(=O)(=O)c1ccc(N)cc1 [4-Amino-N,N-dimethylbenzenesulfonamide] | 138.47 | 137.21 | 7.89 | 7.97 |  | 
19 | CC[C@H]1OC(=O)[C@H](C)[C@@H](O[C@H]2C[C@@](C)(OC)[C@@H](O)[C@H](C)O2)[C@H](C)[C@@H](O[C@@H]2O[C@H](C)C[C@H](N(C)C)[C@H]2O)[C@](C)(O)C[C@@H](C)C(=O)[C@H](C)[C@@H](O)[C@]1(C)O [Erythromycin] | 259.69 |  | 13 |  |  | 
20 | Cc1nccc2c1[nH]c1ccccc12 [Harman] | 136.39 | 135.7 | 8.86 | 13.4 |  | 
21 | NC(=O)N1c2ccccc2C(O)C(O)c2ccccc21 (centres undefined) [10,11-Dihydro-10,11-dihydroxycarbamazepine] | 157.4 |  | 10.4 |  |  | 
22 | CCCCCCCCCCCCCCCCCCN [1-Octadecylamine] | 184.09 |  | 18.4 |  |  | 
23 | CC(C)NCC(O)COc1cccc2ccccc12 (centres undefined) [Propanolol] | 162.88 |  | 11.3 |  |  | 
24 | CCOCN(C(=O)CCl)c1c(C)cccc1CC [Acetochlor] | 158.08 |  | 15 |  |  | 

Row | Structure (SMILES) | collision cross section [1, 3] [Å²] | collision cross section [1, 4] [Å²] | reversed-phase LC retention time [2, 3] [min] | reversed-phase LC retention time [2, 4] [min] | collision cross section [1, 5] [Å²] | reversed-phase LC retention time [2, 5] [min]
25 | c1ccc2c(c1)[nH]c1ncccc12 [Carboline] | 132.73 | 129.53 | 11.7 | 12.9 |  | 
26 | CC12CC1(C)C(=O)N(c1cc(Cl)cc(Cl)c1)C2=O (centres undefined) [Procymidone] |  | 172.16 |  | 15 |  | 
27 | CNC1(c2ccccc2Cl)CCCCC1=O (centres undefined) [Ketamine] | 149.17 |  | 8.79 |  |  | 
28 | COc1ccc(CCN(C)CCCC(C#N)(c2ccc(OC)c(OC)c2)C(C)C)cc1OC (centres undefined) [Verapamil] | 208.22 |  | 12.2 |  |  | 
29 | CN1CCCC(n2nc(Cc3ccc(Cl)cc3)c3ccccc3c2=O)CC1 (centres undefined) [Azelastine] | 189.23 |  | 12.7 |  |  | 
30 | c1ccc2[nH]cnc2c1 [Benzimidazole] | 119.54 |  | 4.16 |  |  | 
31 | COC=C(C(=O)OC)c1ccccc1Oc1cc(Oc2ccccc2C#N)ncn1 [Azoxystrobin] | 196.56 |  | 13.8 |  |  | 
32 | CO/N=C(\C(=O)OC)c1ccccc1COc1ccccc1C [Kresoxim-methyl] | 167.17 |  | 15.4 |  |  | 
33 | CC(C)(c1ccccc1)c1cc(-n2nc3ccccc3n2)c(O)c(C(C)(C)c2ccccc2)c1 [UV-234] | 219.51 |  | 19.7 |  |  | 
34 | CC(NC(C)(C)C)C(=O)c1cccc(Cl)c1 (centres undefined) [Bupropion] | 158.6 |  | 10.3 |  |  | 
35 | O=C(Nc1ccc(F)cc1)c1cccc(Oc2cccc(C(F)(F)F)c2)n1 [Picolinafen] | 189.81 | 186.89 | 16.8 | 17.2 |  | 
36 | Clc1ccc2n[nH]nc2c1 [5-Chlorobenzotriazole] |  | 120.9 |  | 9.28 |  | 
37 | Nc1nc2ccccc2[nH]1 [2-Aminobenzimidazole] | 124.95 |  | 5.92 |  |  | 
38 | CC1(C(=O)Nc2ccc(O)c(Cl)c2Cl)CCCCC1 [Fenhexamid] | 166.46 | 172.09 | 14.8 | 14.6 |  | 
39 | O=C(c1ccc(OCCN2CCCCC2)cc1)c1c(-c2ccc(O)cc2)sc2cc(O)ccc12 [Raloxifene] | 216.23 | 213.83 | 11.3 | 15.4 |  | 
40 | O=C1NC(=O)C2CC=CCC12 (centres undefined) [Tetrahydrophthalimide] | 130.01 |  | 5.38 |  |  | 
41 | O=C(O)C(F)(F)C(F)(F)C(F)(F)C(F)(F)C(F)(F)F [Perfluorohexanoic acid] |  | 138.14 |  | 12.6 |  | 
42 | CN1CCN(C2=Nc3cc(Cl)ccc3Nc3ccccc32)CC1 [Clozapine] | 179.65 |  | 11.6 |  |  | 
43 | Clc1ccc(COC(Cn2ccnc2)c2ccc(Cl)cc2Cl)c(Cl)c1 (centres undefined) [Miconazole] | 191.81 |  | 15.6 |  |  | 
44 | COCCN(C(=O)CCl)c1c(C)cccc1C [Dimethachlor] | 152.09 |  | 13.3 |  |  | 
45 | CCC(C)(c1ccc(O)cc1)c1ccc(O)cc1 [Bisphenol B] |  | 165.01 |  | 14.3 |  | 
46 | COCCc1ccc(OCC(O)CNC(C)C)cc1 (centres undefined) [Metoprolol] | 171.87 |  | 9.39 |  |  | 
47 | COc1ccc2c(c1)[C@]13CCCC[C@@H]1[C@H](C2)N(C)CC3 [Dextromethorphan] | 166.66 |  | 11.4 |  |  | 
